Like-named read-outs stand apart in the source and are kept apart here.
Legend:
[1] = system: basal gastric acid secretion; assay: Inhibition of total acid output (basal gastric acid secretion) in the acute gastric fistula rat; assay type: in vivo, female Sprague-Dawley rats; conditions: intraduodenal; for inhibition in vivo at 10 mg/kg / inhibition in vivo at 2.5 mg/kg / inhibition in vivo at 5 mg/kg: Rattus norvegicus
Description: Inhibition of basal gastric acid secretion can be determined by the following procedure.
Female Sprague-Dawley rats weighing 140-160 grams are fasted in individual cages for 18-24 hours. The rats are then lightly anesthetized with ether and their front teeth extracted to avoid destruction of the plastic cannula. A midline incision is then made and the stomach and duodenum exposed. A flanged polyvinyl tube is inserted into the fundic portion of the stomach and secured with a purse string suture line using 4-O Mersilene. The rat is then dosed by injection of the compound into the duodenum (1.0 ml. per 100 gram body weight). After dosing, the abdominal wall and skin are closed using metal wound clips. The rat is replaced in a cage containing a longitudinal slit to allow the polyvinyl tube to hang freely. An 8 ml. plastic collecting tube is attached to the flanged cannula and hangs freely below the cage. The first 30 minute sample is discarded designating this time as zero. The collecting tube is attached again and samples removed at the end of 60 and 120 minutes. These samples are referred to as "A" and "B" in the table. The hourly samples are then transferred to a 15 ml. centrifuge and centrifuged for 5-10 minutes. Total and sediment volume are then recorded with the supernatent volume being used as volume of secretion. A 1 ml. or less aliquot is then removed and placed in a 50 ml. beaker containing 10 ml. of distilled water. This sample is then titrated using 0.01 N NaPH to pH 7.0 using a Beckman zeromatic pH meter. Volume, titratable acidity (mew/L) and total acid output (ueq/hour) are recorded. Percent inhibition is determined by comparison with the appropriate control. Groups of three rats were used for preliminary testing, and groups of six rats were used for dose-response evaluations. All compounds are administered in a vehicle consisting of 0.5% methocel, 0.4% tween 80, and saline at a constant volume of 1 ml./100 gram rat. Samples are dispersed by sonification. Percent inhibition is calculated on basis of concurrent vehicle control.
In Table III which follows is given the effect on total acid output after 60 minutes and 120 minutes of intraduodenal dose, of representative compounds of this invention.

gastric acid secretion = assay: Gastric acid secretion inhibition, modified Shay rat procedure; assay type: in vivo, rats (male, CFE strain); conditions: Rattus norvegicus, read-out: Percent inhibition of gastric acid secretion
Text: The novel compounds of the present invention are effective inhibitors of gastric acid secretion and of ulcer development in experimental animals, and thus are potentially valuable as agents for the control of gastric secretion and of gastric erosion and as anti-ulcer agents. Gastric acid secretion inhibitory action is usually measured by the "Shay rat" procedure ^(1,2) with some modifications as follows.
(1) Shay et al., Gastroenterology, 5, 43 (1945).
The rats (male, CFE strain) were starved for 48 hours (water was given ad libitum) to permit evacuation of stomach contents. On the morning of the experiment, under ether anesthesia, the abdominal region was shaved and a midline incision (1-11/2" ) was made with a scapel. With the help of a closed curved hemostat the duodenum was picked up. Upon getting the duodenum into view, fingers were used to pull the stomach through the opening, the stomach was then gently manipulated with fingers to rid stomach of air and residual matter which were pushed through the pylorus. Two-5 inch sutures were drawn under the pyloric-duodenal puncture. A ligature at the juncture, was formed with one of the threads. The second ligature was also formed but not tightened.
The test compound or the vehicle, usually 1 ml./100 g. body weight, were injected into the duodenum as close as possible to the first ligature. After injection the second ligature was tightened below the injection site to minimize leakage. The stomach was placed back through the opening into the abdominal cavity, the area of incision was washed with saline and the incision was closed with autoclips. (Occasionally, instead of an intraduodenal injection, animals were dosed by the oral or subcutaneous route. In the latter case, dosing was done thirty to sixty minutes before the operation.)
The abdominal cavity was exposed by cutting with scissors and the esophagus close to the stomach was clamped off with a hemostat, the stomach was removed by cutting above the hemostat (the esophagus was cut) and between the two sutures. Extraneous tissue was removed, the stomach washed with saline and blotted on gauze. A slit was carefully made in the stomach which was held over a funnel and the contents were collected in a centrifuge tube. The stomach was further cut along the outside edge and turned inside out. Two ml. H2 O were used to wash the stomach contents into the respective centrifuge tube. The combined stomach contents and wash were then centrifuged out for 10 minutes in the International Size 2 Centrifuge (setting at 30). The supernatant was collected, volume measured and recorded, 2 drops of a phenylphthalein indicator (1% in 95% ethanol) were added and the solution was titrated with 0.02 N NaOH (or with 0.04 N NaOH when large volumes of stomach contents were encountered) to pH 8.4 (because of usual coloring of the stomach contents, phenolphthalein was only used to permit visual indication that the end point was near) and the amount of acid present was calculated.
Compounds inducing inhibition of gastric acid secretion of 20% or more were considered active. In a representative operation, and merely by way of illustration, the results obtained with this assay with typical compounds of the present invention are given in Table II below.

[2] = system: ulcerogenic effects induced by indomethacin (stomach ulcers); assay type: in vivo, rat; conditions: indomethacin 20 mg/kg s.c., score 0-4
Description: It is further to be noted that although prostaglandins in general are not effective when administered by oral route, the compounds of this invention are effective orally. The assay to determine the protective effect of these compounds is carried out in the following manner.
Rats were starved for 48 hours (water was given ad libitum). Indomethacin (20 mg./kg. of body weight) was administered by the subcutaneous route and one-half the dose of the test compound was administered by gavage at the same time. After three hours, the second half of the test compound was administered, also by gavage. Five hours after the administration of indomethacin the animals were decapitated and the stomachs removed. The stomachs were washed with distilled water, blotted on gauze, cut along the larger curvature, and the contents rinsed with distilled water. The stomachs were spread out, pinned on a cork and visualized under magnifying glass for ulcers. The criteria for scoring of ulcers was as previously reported. [Abdel-Galil et al. Brit. J. Pharmac. Chemotherapy 33:1-14 (1968)]. […]
1 Petechial hemorrhage of pin point ulcers
3 Many ulcers, a few large
4 Many ulcers, mainly large
Control animals treated with indomethacin but not test compound consistently give scores of about 2.5-3.5. Control animals treated with neither indomethacin not test compound give scores of about 0.5-0.8. Compounds diminishing the control ulcer score by 0.5 unit or more are considered to be active.

[3] = 1 h, 10 mg/kg, 60 min, read-out: % Inhibition of total acid output, after 60 minutes (A)
[4] = 2 h, 10 mg/kg, 120 min, read-out: % Inhibition of total acid output, after 120 minutes (B)
[5] = 1 h, 60 min, read-out: % Inhibition of total acid output, after 60 minutes (A)
[6] = 2 h, 120 min, read-out: % Inhibition of total acid output, after 120 minutes (B)
[7] = total oral dose 25 mg/kg, controls 2.7-3.9
[8] = total oral dose 50 mg/kg, controls 2.5-3.2

## CCCCC[C@H](O)/C=C/[C@@H]1[C@@H](C/C=C\CCCC(=O)O)[C@@H](O)C[C@H]1C(C)C [11α-isopropyl-11-deoxyprostaglandin F2α]
[1]; [3]
  inhibition in vivo at 10 mg/kg: 44%
[1]; [4]
  inhibition in vivo at 10 mg/kg: 35%

## CCCCCC(C)/C=C/[C@@H]1[C@@H](C/C=C\CCCC(=O)O)[C@@H](O)C[C@H]1C (stereo partly drawn) [l-9α-hydroxy-11α,15-dimethyl-S--cis,13-trans-prostadienoic acid]
[1]; [3]
  inhibition in vivo at 10 mg/kg: 25%
[1]; [4]
  inhibition in vivo at 10 mg/kg: 20%

## CCCCC[C@H](O)/C=C/[C@H]1[C@@H](CO)C[C@H](O)[C@@H]1C/C=C\CCCC(=O)O [l-11β-hydroxymethyl-11-deoxyprostaglandin-F2 α]
[1]; [3]
  inhibition in vivo at 10 mg/kg: 0%
[1]; [4]
  inhibition in vivo at 10 mg/kg: 43%

## CCCCCC(O)/C=C/C1C(S)CC(O)C1C/C=C\CCCC(=O)O (stereo not drawn) [l-11-mercapto-11-deoxprostaglandin-F2 α, l-11-deoxy-11α-mercaptoprostaglandin-F2 α]
[1]; 10 mg/kg, 60 min
  % Inhibition of total acid output, after 60 minutes (A): 44%
[1]; 10 mg/kg, 120 min
  % Inhibition of total acid output, after 120 minutes (B): 55%

## CCCCC[C@@H](/C=C/[C@H]1[C@H](SCC)CC(=O)[C@@H]1C/C=C\CCCC(=O)OC)OC(C)=O [11-deoxy-11α-ethylthio-15-O-acetyl prostaglandin E2 methyl ester]
Gastric acid secretion; intraduodenal
  inhibition in vivo at 50 mg/kg: 27%
[1]; [5]
  inhibition in vivo at 2.5 mg/kg: 54%
  inhibition in vivo at 5 mg/kg: 19%
[1]; [3]
  inhibition in vivo at 10 mg/kg: 80%
[1]; [6]
  inhibition in vivo at 2.5 mg/kg: 51%
  inhibition in vivo at 5 mg/kg: 59%
[1]; [4]
  inhibition in vivo at 10 mg/kg: 24%

## CCCCC[C@@H](/C=C/[C@H]1[C@H](C)CC(=O)[C@@H]1C/C=C\CCCC(=O)OC)OC(C)=O [l-11α-methyl-11-deoxyprostaglandin-E2 15-O--acetyl methyl ester]
Gastric acid secretion; intraduodenal
  inhibition in vivo at 50 mg/kg: 63%

## CCCCC[C@H](O)/C=C/[C@H]1[C@H](CC)C[C@H](O)[C@@H]1C/C=C\CCCC(=O)O [l-11α-ethyl-11-deoxyprostaglandin-F2 α, 11α-ethyl-11-deoxyprostaglandin F2α]
[2]; [7]
  Ulcer score, treated animals: 2.2

## CCCCC[C@H](O)/C=C/[C@H]1C(C#N)CC(=O)[C@@H]1C/C=C\CCCC(=O)OC (stereo partly drawn) [11α/β-cyano-11-deoxyprostaglandin E2 methyl ester]
[2]; [7]
  Ulcer score, treated animals: 1.3
Gastric acid secretion; intraduodenal
  inhibition in vivo at 50 mg/kg: 33%

## CCCCC[C@H](O)/C=C/[C@@H]1[C@@H](C/C=C\CCCC(=O)O)[C@@H](O)C[C@H]1C(N)=O [11α-carboxamido-11-deoxyprostaglandin F2α]
[2]; [8]
  Ulcer score, treated animals: 2.3
Gastric acid secretion; intraduodenal
  inhibition in vivo at 50 mg/kg: 27%

## CCCCC[C@@H](/C=C/[C@H]1[C@H](SC)CC(=O)[C@@H]1C/C=C\CCCC(=O)OC)OC(C)=O [l-11α-methylthio-11-deoxyprostaglandin-E2 15-O--acetate methyl ester]
[2]; [8]
  Ulcer score, treated animals: 2.0
Gastric acid secretion; intraduodenal
  inhibition in vivo at 50 mg/kg: 35%

## CCCCC[C@H](O)/C=C/[C@H]1[C@H](C(C)(C)O)CC(=O)[C@@H]1C/C=C\CCCC(=O)O [11-deoxy-11α-(1-hydroxy-1-methylethyl)prostaglandin-E2]
Gastric acid secretion; sc, subcutaneous, 8 mg/kg
  inhibition in vivo at 8 mg/kg: 31%

## CCCCC[C@H](O)/C=C/[C@@H]1[C@@H](C/C=C\CCCC(=O)O)[C@@H](O)C[C@H]1c1ccccc1 [l-11α-phenyl-11-deoxyprostaglandin-F2 α, l-11-deoxy-11α-phenylprostaglandin-F2 α]
[2]; [7]
  Ulcer score, treated animals: 2.0

## CCCCC[C@H](O)/C=C/[C@H]1[C@H](C[N+](=O)[O-])C[C@H](O)[C@@H]1C/C=C\CCCC(=O)O [11α-nitromethyl-11-deoxyprostaglandin F2α]
[2]; [8]
  Ulcer score, treated animals: 1.8
Gastric acid secretion; intraduodenal
  inhibition in vivo at 50 mg/kg: 38%

## CCCCCC(C)/C=C/[C@H]1[C@H](C)CC(=O)[C@@H]1C/C=C\CCCC(=O)OC (stereo partly drawn) [11-deoxy-11α-methyl-15-deoxy-15-methylprostaglandin E2 methyl ester]
Gastric acid secretion; intraduodenal
  inhibition in vivo at 50 mg/kg: 40%

## CCCCC[C@H](O)/C=C/[C@@H]1[C@@H](C/C=C\CCCC(=O)O)[C@@H](O)C[C@H]1C(C)(C)O [11-deoxy-11α-(1-hydroxy-1-methylethyl)prostaglandin-F2α]
[1]; [3]
  inhibition in vivo at 10 mg/kg: 36%
[1]; [4]
  inhibition in vivo at 10 mg/kg: 35%

## CCCCCC(C)/C=C/C1C(C)CC(=O)C1C/C=C\CCCC(=O)O (stereo not drawn) [l-11α,15-dimethyl-11,15-bis-deoxyprostaglandin-E2 α]
[2]; [8]
  Ulcer score, treated animals: 2.2

## CCCCC[C@H](O)/C=C/[C@H]1[C@H](SC)CC(=O)[C@@H]1C/C=C\CCCC(=O)OC [l-11α-methylthio-11-deoxyprostaglandin-E2 methyl ester]
Gastric acid secretion; intraduodenal, 100 mg/kg
  inhibition in vivo at 100 mg/kg: 55%

## CCCCC[C@@H](/C=C/[C@H]1C(C#N)CC(=O)[C@@H]1C/C=C\CCCC(=O)OC)OC(C)=O (stereo partly drawn) [11α/11β-cyano-11-deoxy-15-O-acetyl-prostaglandin E2 methyl ester]
[2]; total oral dose 12.5 mg/kg, controls 2.5-3.0
  Ulcer score, treated animals: 2.0
[2]; [8]
  Ulcer score, treated animals: 1.3
Gastric acid secretion; intraduodenal, 25 mg/kg
  inhibition in vivo at 25 mg/kg: 51%
[1]; [3]
  inhibition in vivo at 10 mg/kg: 40%
[1]; [4]
  inhibition in vivo at 10 mg/kg: 34%
